Literature values in patent US10507186B2, “Methods and compositions particularly for treatment of attention deficit disorder” (Purdue Pharma L.P., priority 2014, dated 2019).
Where a name gives a salt, the structure may show the parent alone. Read-outs that look alike come from different tables or passages of the source.

Tests used:
[1] = tested on: ADHD symptoms in patients; settings: long-acting lisdexamfetamine dimesylate

lisdexamfetamine dimesylate
reported duration of action [1]: up to 14 hours

COC(=O)C(c1ccccc1)C1CCCCN1 (racemic) [Methylphenidate, dl-threo-methyl-2-phenyl-2-(2-piperidyl)acetate]
degradation amount (as the pH increases to 8.9): up to 100%
stability (in acidic solutions): relatively stable
stability (in basic solutions, hydrolysis of the methyl ester to the free acid): degraded extensively

COC(=O)C(c1ccccc1)C1CCCCN1 (stereo not drawn) [Methylphenidate hydrochloride]
solubility (in acetone): slightly soluble
solubility (in alcohol): soluble
solubility (in chloroform): slightly soluble
solubility (in methanol): freely soluble
solubility (in water): freely soluble
